Measurements as given in patent US20170042955A1, “Novel Anti-Fungal Composition” (priority 2014, published 2017).

Assays:
[1] = tested on: C. albicans; experiment: Antifungal activity by modified Kerby-Bauer disc method; format: cell-based, Candida albicans
Protocol: • Susceptibility disks (5 mm in diameter) were impregnated with 0.5 mg of desired compound(s)/extract dissolved in DMSO, and placed on Sabouraud dextrose agar plates separately inoculated with the C. albicans and C. glabrata. […] Disc containing only DMSO was used as a negative control. • Anticandidal activity against Candida species: • Dose dependent anti-candidal activity was observed up on treatment using Lawsoniainermisextract against tested C. albicans and C. glabrata (Table 1).

[2] = tested on: proteinase of C. albicans NCIM 3074; experiment: Protease inhibitory activity, native gel electrophoresis (casein zymogram); format: cell-based, Candida albicans; conditions: 100 μg mL-1 Lawsone; 24-48 h at 37° C.; FIG. 6
Protocol: (§1) C. albicans NCIM 3074 culture was grown in Sabouraud broth at 37° C. for 12 h. The culture was centrifuged at 7000 rpm for 5 mm to pellet the cells. The cell pellet was washed twice with normal saline and centrifuged to collect the pellets. 100 μL of Candida albicans cell suspension was added to proteinase induction medium containing 1% glucose, 3% yeast carbon base and 1% BSA (Bovine Serum Albumin). […] This was added to respective test tubes immediately after the inoculation of culture. The mixture was incubated for 24-48 h at 37° C. in a shaker at 150 rpm. Culture broth was centrifuged at 7000 rpm for 15 min to remove cells. Cells were lysed and cell lysis was used for zymographic studies after protein estimation. Zymogram was performed with 1% casein incorporated in the acrylamide gel to detect the proteinase inhibition activity. The proteinase inhibitory activity was indicated by no cleavage of casein (no band formation) and it can be compared to complete cleavage of casein by proteinases (white band formation) in control groups. […] Subsequently, 1 ml of 60% perchloric acid was added and the final volume was made to 9.1 ml using distilled water to this 0.5 ml of molybdate II reagent and 0.4 ml ANSA reagent mixture was added. The tubes were shaken well and heated in a boiling water bath for 8 mm exactly. The blue color developed was read using spectrophotometer at 680 nm.

[3] = tested on: Phospholipase of C. albicans; experiment: Phospholipase inhibitory activity, spectrophotometric analysis; format: cell-based, Candida albicans; conditions: Lawsone 100 μg/ml
Protocol: as §1

[4] = tested on: Candida sp.; conditions: literature study (13); cited from earlier work

For `O=C1C=C(O)C(=O)c2ccccc21` [Lawsone], the “Inhibition of candidal growth” value ([1]; C. albicans, all three concentrations 50, 100 and 200 μg/ml, FIG. 1) was “Complete inhibition of candidal growth”, the zone of inhibition at 50 µg/disc ([1]; Candida albicans) was 14 mm and the zone of inhibition at 100 µg/disc ([1]; Candida albicans) was 16 mm. For the same compound, the zone of inhibition at 200 µg/disc ([1]; Candida albicans) was 17 mm, the “Zymogram result, casein cleavage” value [2] was “intact Casein (no band/less intense band formation)” and the “% Inhibition of Phospholipase Enzyme Activity” value ([3]; compared to Control) was 77.78%. For the same compound, the “Phospholipase Enzyme Activity (O.D)” value ([3]; read at 680 nm) was 0.02 O.D and the “Activity on Candida sp.” value [4] was “there isn't appreciable activity”.
